Source: US20250101062A1, “ANTIMICROBIAL PEPTIDES” (Board of Regents of the University of Nebraska, priority 2023, published 2025)
Converted amounts (≈) assume the structure as drawn. Read-outs that look alike come from different tables or passages of the source. Where no end group is shown, it is not given here.

How the values were obtained:
Assay type in all cases: cell-based, Staphylococcus aureus
[1] = tested on: S. aureus USA300 LAC; test: microbe, parasite or virus in culture
Summary of the method: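 Broth microdilution with twofold peptide dilutions, using exponential-phase bacteria at about 10^5 CFU/mL in MHB, incubated overnight at 37 °C and read at OD600. MIC, reported as a range, is the peptide concentration with no growth. Some tests used diluted MHB/TSB/LB, adjusted pH, or added NaCl or human serum.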

[2] = tested on: MRSA USA300; test: Membrane permeabilization (propidium iodide)
Protocol: The peptide ladder was prepared as described for the antibacterial assay with 10 μL of solution in a black COSTAR® 96-well plate. PI (MP Biomedicals, Solon, OH) was prepared in the dark and dissolved in dimethylsulfoxide (Thermo Fisher Scientific, NY) to 20 mM. This PI stock solution was further diluted to 1 mM with water, and 2 μL of 1 mM PI was added to each well. Exponential-phase MRSA USA300 was diluted to OD600 0.11 with TSB, and 88 μL was added to each well. The plate was incubated at 37° C. with continuous shaking in a FLUOstar® Omega (BMG LABTECH, NC) microplate reader. The sample was read every 5 minutes for 24 cycles with excitation and emission wavelengths of 584 and 620 nm, respectively.
Bacterial membrane permeation was conducted (Yeaman, et al. (1998) J. Clin. Invest., 101(1):178-87). In brief, the peptide ladder was prepared as described for the antibacterial assay with 10 μL in a black COSTAR 96-well plate. Propidium iodide (PI) (MP Biomedicals, Solon, OH) was prepared in the dark and dissolved in DMSO (Thermo Fisher Scientific, NY) to 20 mM. This PI stock solution was further diluted to 1 mM with water and 2 μL of 1 mM PI was added to each well. Exponential phase MRSA USA300 or P. aeruginosa E411-17 was diluted to OD600 0.11 with tryptic soy broth (TSB) and 88 μL was added to each well. The plate was incubated at 37° C. with continuous shaking in a FLUOstar® Omega (BMG LABTECH, NC) microplate reader. The sample was read every 5 minutes for 24 cycles with excitation and emission wavelengths at 584 nm and 620 nm, respectively.

[3] = tested on: MRSA USA300; test: microbe, parasite or virus in culture; conditions: 17 passages at sub-MIC
Protocol: The experiment was conducted as described (Lakshmaiah et al. (2020) Proc. Natl. Acad. Sci., 117:19446-19454). Briefly, MRSA USA300 was grown to the exponential phase in MHB and diluted to OD600 0.001 (˜10^5 CFU/mL). Aliquots of 90 μL were added to a 96-well polystyrene microplate (Costar, Corning, NY) containing 10 μL of serially diluted LL-37mini, nafcillin, or daptomycin. After overnight incubation at 37° C., the plates were read at 600 nm using a ChroMate™ microplate reader (GMI, Ramsey, MN). Untreated bacterial culture and medium were included as untreated control and blank, respectively. The MIC is the lowest peptide concentration that inhibited the bacterial growth. The wells with sub-MIC levels of the peptides that retained growth approximately half the growth of the control wells were reinoculated in fresh MHB with sub-MIC concertation of peptides or antibiotics to attain exponential phase for MIC determination. In total, 17 passages of the bacterial cultures were conducted. A rapid increase in MIC is an indication of antibiotic resistance.

CC[C@H](C)[C@H](NC(=O)[C@H](CCCCN)NC(=O)[C@H](CCC(=O)O)NC(=O)[C@H](CCCCN)NC(=O)[C@H](CO)NC(=O)[C@H](CCCCN)NC(=O)[C@H](CCCNC(=N)N)NC(=O)[C@H](Cc1ccccc1)NC(=O)[C@H](Cc1ccccc1)NC(=O)[C@H](CC(=O)O)NC(=O)CNC(=O)[C@H](CC(C)C)NC(=O)[C@@H](N)CC(C)C)C(=O)NCC(=O)N[C@@H](CCCCN)C(=O)N[C@@H](CCC(=O)O)C(=O)N[C@@H](Cc1ccccc1)C(=O)N[C@@H](CCCCN)C(=O)N[C@@H](CCCNC(=N)N)C(=O)N[C@H](C(=O)N[C@H](C(=O)N[C@@H](CCC(N)=O)C(=O)N[C@@H](CCCNC(=N)N)C(=O)N[C@H](C(=O)N[C@@H](CCCCN)C(=O)N[C@@H](CC(=O)O)C(=O)N[C@@H](Cc1ccccc1)C(=O)N[C@@H](CC(C)C)C(=O)N[C@@H](CCCNC(=N)N)C(=O)N[C@@H](CC(N)=O)C(=O)N[C@@H](CC(C)C)C(=O)N[C@H](C(=O)N1CCC[C@H]1C(=O)N[C@@H](CCCNC(=N)N)C(=O)N[C@H](C(=O)N[C@@H](CCC(=O)O)C(=O)N[C@@H](CO)C(=O)O)[C@@H](C)O)C(C)C)[C@@H](C)CC)C(C)C)[C@@H](C)CC [LL-37]
MIC ([1]; DMEM, read-out: Antimicrobial activity (MIC)): ≤4 µM | MIC ([1]; Human serum 5%, read-out: Antimicrobial activity (MIC)): >32 µM | MIC ([1]; Human serum 10%, read-out: Antimicrobial activity (MIC)): >32 µM | Antimicrobial activity (MIC) ([1]; LB 12.5%): >32 µM | Antimicrobial activity (MIC) ([1]; LB 25%): >32 µM | Antimicrobial activity (MIC) ([1]; LB 50%): >32 µM | Antimicrobial activity (MIC) ([1]; LB 100%): >32 µM | Antimicrobial activity (MIC) ([1]; MHB 50%): 32 µM | Antimicrobial activity (MIC) ([1]; MHB 100%): did not display any activity | MIC ([1]; MHB, Table 8, read-out: Antimicrobial activity (MIC) S. aureus USA300): >32 µM | MIC ([1]; NaCl (150 mM), read-out: Antimicrobial activity (MIC)): >32 µM | MIC ([1]; RPMI 1640, read-out: Antimicrobial activity (MIC)): ≤4 µM | Antimicrobial activity (MIC) ([1]; TSB 12.5%): >32 µM | Antimicrobial activity (MIC) ([1]; TSB 25%): >32 µM | Antimicrobial activity (MIC) ([1]; TSB 50%): >32 µM | Antimicrobial activity (MIC) ([1]; TSB 100%): >32 µM | MIC ([1]; pH 6.21, read-out: Antimicrobial activity (MIC)): >32 µM | MIC ([1]; pH 7.22, read-out: Antimicrobial activity (MIC)): >32 µM | membrane permeabilization ([2]; Example 2, TSB, 1-32 μM): failed to do so

RRWWRWWR-NH2 [W543]
change of MIC / activity ([1]; MRSA in MHB, 10% human serum): eightfold | effect on MIC ([1]; MRSA in MHB, addition of 150 mM NaCl): did not alter the MIC | increase of MIC ([1]; MRSA in MHB, decrease of pH from 7.2 to 6.3): twofold | Activity (MIC) S. aureus ([1]; USA300): 4 to 8 µM | Antimicrobial activity (MIC) ([1]; USA300): 64 µM | Antimicrobial activity (MIC) ([1]; USA300, pH 6.3): 16 µM | concentration with no growth ([1]; without protease): 8 µM | resistance development [3]: essentially no change in the MIC values | membrane permeabilization ([2]; Example 1, 1×MIC): clear fluorescence increase

CCCCCCCCCC(=O)N[C@@H](Cc1c[nH]c2ccccc12)C(=O)N[C@H](CC(N)=O)C(=O)N[C@@H](CC(=O)O)C(=O)N[C@@H]1C(=O)NCC(=O)N[C@@H](CCCN)C(=O)N[C@@H](CC(=O)O)C(=O)N[C@H](C)C(=O)N[C@@H](CC(=O)O)C(=O)NCC(=O)N[C@H](CO)C(=O)N[C@@H]([C@H](C)CC(=O)O)C(=O)N[C@@H](CC(=O)c2ccccc2N)C(=O)O[C@@H]1C [Daptomycin]
MIC ([1]; Staphylococcus aureus, MRSA / USA300, MRSA in MHB, 10% serum, read-out: Antimicrobial activity (MIC)): 1 µM (≈ 1.62 µg/mL) | MIC ([1]; Staphylococcus aureus, MRSA / USA300, MRSA in MHB, 20% serum, read-out: Antimicrobial activity (MIC)): 1 µM (≈ 1.62 µg/mL) | MIC ([1]; Staphylococcus aureus, MRSA / USA300, MRSA in MHB, NaCl (150 mM), read-out: Antimicrobial activity (MIC)): 1 µM (≈ 1.62 µg/mL) | MIC ([1]; Staphylococcus aureus, MRSA / USA300, pH 6.3, MRSA in MHB, pH 6.3, read-out: Antimicrobial activity (MIC)): 1 µM (≈ 1.62 µg/mL) | MIC ([1]; Staphylococcus aureus, MRSA / USA300, pH 7.2, MRSA in MHB, pH 7.2, read-out: Antimicrobial activity (MIC)): 1 µM (≈ 1.62 µg/mL) | MIC ([1]; Staphylococcus aureus, USA300, Human serum 5%, read-out: Antimicrobial activity (MIC)): 0.5 to 1 µM (≈ 0.81 to 1.62 µg/mL) | MIC ([1]; Staphylococcus aureus, USA300, Human serum 10%, read-out: Antimicrobial activity (MIC)): 0.5 to 1 µM (≈ 0.81 to 1.62 µg/mL) | MIC ([1]; Staphylococcus aureus, USA300, MHB, Table 8, read-out: Antimicrobial activity (MIC) S. aureus USA300): 0.5 to 1 µM (≈ 0.81 to 1.62 µg/mL) | MIC ([1]; Staphylococcus aureus, USA300, NaCl (150 mM), read-out: Antimicrobial activity (MIC)): 0.5 µM (≈ 0.81 µg/mL) | MIC ([1]; Staphylococcus aureus, USA300, pH 6.21, pH 6.21, read-out: Antimicrobial activity (MIC)): 0.5 to 1 µM (≈ 0.81 to 1.62 µg/mL) | MIC ([1]; Staphylococcus aureus, USA300, pH 7.22, pH 7.22, read-out: Antimicrobial activity (MIC)): 0.5 µM (≈ 0.81 µg/mL) | MIC ([1]; Staphylococcus aureus, USA300, pH 8.13, pH 8.13, read-out: Antimicrobial activity (MIC)): 0.5 µM (≈ 0.81 µg/mL) | resistance development [3]: did not develop resistance | membrane permeabilization ([2]; Example 1, 1×MIC): membrane permeabilization after a delay
